From ChEMBL document CHEMBL1201862, “PubChem BioAssay data set” (2004)
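1) Cells in 96-well plates. 2) Compound, 48 h, 5 concentrations. 3) Linear interpolation between surrounding doses. 4) Unreached endpoint = highest concentration. The concentration for 50% growth inhibition is given as GI50.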 The source made the active and inactive calls. No stated cut-off is given here; in the data, active = GI50 up to about 1.1 µM and inactive = higher.

Tests used:
Assay in all cases: inhibition of tumour cell growth, NCI panel, 48 h
[1] = test system: BT-549
[2] = test system: K562
[3] = test system: PC-3
[4] = test system: SK-MEL-5
[5] = test system: HOP-92
[6] = test system: OVCAR-5
[7] = test system: SF-268
[8] = test system: Hs-578T
[9] = test system: SN12C
[10] = test system: SK-MEL-28
[11] = test system: 786-0
[12] = test system: MDA-MB-231
[13] = test system: MCF7
[14] = test system: NCI-H23
[15] = test system: EKVX
[16] = test system: U-251
[17] = test system: HCT-116
[18] = test system: DMS-114
[19] = test system: SF-295
[20] = test system: SNB-19

Measured: GI50

O=C1C=CC(=O)c2cc(Sc3ccccc3)c(=O)ccc21
inactive: [1] 17.9 µM | [2] 2.49 µM | [3] 18.2 µM | [4] 14.2 µM | [5] 10.4 µM | [6] 19.6 µM | [7] 22 µM | [8] 27.4 µM | [9] 16.2 µM | [10] 18 µM | [11] 14.8 µM | [12] 17.9 µM | [13] 5.83 µM | [14] 19.2 µM | [15] 18.3 µM | [16] 17 µM | [17] 18 µM | [18] 18.8 µM | [19] 8.36 µM | [20] 19.3 µM

CC1=C2C(=CC(C)(C)[C@@H]2O)C(=O)[C@](C)(O)C12CC2 [ILLUDIN M]
active: [2] 0.0181 µM | [3] 0.0138 µM | [4] 0.0126 µM | [5] 0.0193 µM | [6] 0.0183 µM | [7] 0.0162 µM | [9] 0.0236 µM | [10] < 0.0209 µM | [11] 0.01 µM | [14] < 0.0126 µM | [15] 0.0773 µM | [16] 0.01 µM | [17] 0.01 µM | [18] 0.0251 µM | [19] < 0.018 µM | [20] 0.027 µM

COc1cc2c(c(OC)c1OC)C(=O)NCCC2
inactive: [2] > 100 µM | [4] > 100 µM | [5] > 100 µM | [6] > 100 µM | [7] > 100 µM | [9] > 100 µM | [10] > 100 µM | [11] > 100 µM | [13] > 100 µM | [14] > 100 µM | [15] > 100 µM | [16] > 100 µM | [17] > 100 µM | [18] > 100 µM | [19] > 100 µM | [20] > 100 µM

C=C1C(C)C2C(Cc3ccccc3)NC(=O)C23C(OC(C)=O)/C=C/C(C)(O)CC(C)C/C=C/C3C1O (stereo unspecified)
inactive: [1] 2.67 µM | [2] 23.3 µM | [4] 3.05 µM | [6] 70.6 µM | [9] 44.3 µM | [10] 3.94 µM | [13] 6.56 µM | [14] 13.8 µM | [15] 1.72 µM | [17] 4.53 µM | [18] 8.57 µM
active: [5] 0.154 µM | [7] 0.519 µM | [8] 0.0129 µM | [11] 0.632 µM | [12] 0.222 µM | [16] 0.0679 µM | [19] 0.21 µM | [20] 0.0863 µM

O=C(O)C1=C(C(=O)Nc2ccc(NC(=O)C3=C(C(=O)O)C4C=CC3C4)cc2)C2C=CC1C2
inactive: [2] 54.5 µM | [4] > 100 µM | [5] > 100 µM | [6] > 100 µM | [7] > 100 µM | [9] > 100 µM | [10] > 100 µM | [11] > 100 µM | [14] > 100 µM | [15] > 100 µM | [16] > 100 µM | [17] > 100 µM | [18] > 100 µM | [19] > 100 µM | [20] > 100 µM
